The test system of the assay is HCV replicon RNA-containing Huh7 cells (clone A cells). As to the kind of experiment: HCV replicon assay (replicon RNA by RT-PCR, ΔCt HCV, EC90). Type of assay: cell-based. The note with it: Hepatitis C virus, Huh-7, 96 h; for log reduction at 50 µM: read-out: Log10 Reduction at 50 μM. Here is the method: HCV replicon assay. HCV replicon RNA-containing Huh7 cells (clone A cells; Apath, LLC, St. Louis, Mo.) were kept at exponential growth in Dulbecco's modified Eagle's medium (high glucose) containing 10% fetal bovine serum, 4 mM L-glutamine and 1 mM sodium pyruvate, 1×nonessential amino acids, and G418 (1,000 μg/ml). Antiviral assays were performed in the same medium without G418. Cells were seeded in a 96-well plate at 1,500 cells per well, and test compounds were added immediately after seeding. Incubation time 4 days. At the end of the incubation step, total cellular RNA was isolated (RNeasy 96 kit; Qiagen). Replicon RNA and an internal control (TaqMan rRNA control reagents; Applied Biosystems) were amplified in a single-step multiplex RT-PCR protocol as recommended by the manufacturer. The HCV primers and probe were designed with Primer Express software (Applied Biosystems) and covered highly conserved 5′-untranslated region (UTR) sequences (sense, 5′-AGCCATGGCGTTAGTA(T)GAGTGT-3′ (SEQ ID NO: 1), and antisense, 5′-TTCCGCAGACCACTATGG-3′ (SEQ ID NO: 2); probe, 5′-FAM-[…]-TAMRA-3′ (SEQ ID NO: 3)).
To express the antiviral effectiveness of a compound, the threshold RT-PCR cycle of the test compound was subtracted from the average threshold RT-PCR cycle of the no-drug control (ΔCtHCV). A ΔCt of 3.3 equals a 1-log 10 reduction (equal to the 90% effective concentration [EC90]) in replicon RNA levels. The cytotoxicity of the test compound could also be expressed by calculating the ΔCtrRNA values. The ΔΔCt specificity parameter could then be introduced (ΔCtHCV−ΔCtrRNA), in which the levels of HCV RNA are normalized for the rRNA levels and calibrated against the no-drug control.

Regarding `COC(=O)[C@H](C)NP(=O)(OC[C@H]1O[C@@H](n2ccc(=O)[nH]c2=O)[C@](C)(F)[C@@H]1O)Oc1ccccc1` (stereo partly drawn) [Example 5, 2′-Deoxy-2′-fluoro-2′-C-methyluridine 5′-(phenylmethoxy-alanyl phosphate)], the EC90 was determined as 3000 nM and the log reduction at 50 µM was determined as 1.21.

Regarding `COC(=O)[C@@H](NP(=O)(OC[C@H]1O[C@@H](n2ccc(=O)[nH]c2=O)[C@](C)(F)[C@@H]1O)Oc1ccccc1)C(C)C` (stereo partly drawn) [Example 6, 2′-Deoxy-2′-fluoro-2′-C-methyluridine 5′-(phenylmethoxy-valyl phosphate)], the log reduction at 50 µM came out at 0.45.

Consider `COC(=O)[C@@H](NP(=O)(OC[C@H]1O[C@@H](n2ccc(=O)[nH]c2=O)[C@](C)(F)[C@@H]1O)Oc1ccc(Br)cc1)C(C)C` (stereo partly drawn) [Example 7, 2′-Deoxy-2′-fluoro-2′-C-methyluridine 5′-(4-bromophenylmethoxy-valyl phosphate)], for which the log reduction at 50 µM is -0.31.

Regarding `COC(=O)[C@H](C)NP(=O)(OC[C@H]1O[C@@H](n2ccc(=O)[nH]c2=O)[C@](C)(F)[C@@H]1O)Oc1ccc(Br)cc1` (stereo partly drawn) [Example 8, 2′-Deoxy-2′-fluoro-2′-C-methyluridine 5′-(4-bromophenylmethoxy-alanyl phosphate)], the EC90 is 2110 nM and the log reduction at 50 µM is 1.48.

`COC(=O)[C@H](C)NP(=O)(OC[C@H]1O[C@@H](n2ccc(N)nc2=O)[C@](C)(F)[C@@H]1O)Oc1ccccc1` (stereo partly drawn) [Example 10, 2′-Deoxy-2′-fluoro-2′-C-methylcytidine 5′-(phenylmethoxy-alanyl phosphate)]: the EC90 was 19200 nM and the log reduction at 50 µM is 1.25.

On to `COC(=O)[C@@H](NP(=O)(OC[C@H]1O[C@@H](n2ccc(N)nc2=O)[C@](C)(F)[C@@H]1O)Oc1ccc(Br)cc1)C(C)C` (stereo partly drawn) [Example 11, 2′-Deoxy-2′-fluoro-2′-C-methylcytidine 5′-(4-bromophenylmethoxy-valyl phosphate)], for which the log reduction at 50 µM is 0.55.

As to `COC(=O)[C@@H](NP(=O)(OC[C@H]1O[C@@H](n2ccc(N)nc2=O)[C@](C)(F)[C@@H]1O)Oc1ccccc1)C(C)C` (stereo partly drawn) [Example 12, 2′-deoxy-2′-fluoro-2′-C-methylcytidine 5′-(phenylmethoxy-valyl phosphate)], the log reduction at 50 µM was -0.31.

In turn, `COC(=O)CNP(=O)(OC[C@H]1O[C@@H](n2ccc(=O)[nH]c2=O)[C@](C)(F)[C@@H]1O)Oc1ccccc1` (stereo partly drawn) [compound 15] displayed an EC90 of 860 nM.

`CC(C)OC(=O)[C@H](C)NP(=O)(OC[C@H]1O[C@@H](n2ccc(=O)[nH]c2=O)[C@](C)(F)[C@@H]1O)Oc1ccccc1` (stereo partly drawn) [compound 25]: the EC90 came out at 390 nM and the log reduction at 50 µM was 2.22.

For `CCOC(=O)[C@H](C)NP(=O)(OC[C@H]1O[C@@H](n2ccc(=O)[nH]c2=O)[C@](C)(F)[C@@H]1O)Oc1ccc(F)cc1` (stereo partly drawn) [compound 27], the EC90 was 660 nM and the log reduction at 50 µM was determined as 2.25.

In the case of `CC(C)OC(=O)[C@H](C)NP(=O)(OC[C@H]1O[C@@H](n2ccc(=O)[nH]c2=O)[C@](C)(F)[C@@H]1O)Oc1ccc(F)cc1` (stereo partly drawn) [compound 28], it took 750 nM to reach the 90% level (EC90) and the log reduction at 50 µM is 2.16.

Take `CC(C)OC(=O)[C@H](C)NP(=O)(OC[C@H]1O[C@@H](n2ccc(=O)[nH]c2=O)[C@](C)(F)[C@@H]1O)Oc1ccccc1Cl` (stereo partly drawn) [compound 36]: the 90% effect level (EC90) was put at 21900 nM and the log reduction at 50 µM stood at 1.64.

For `CC(C)OC(=O)[C@H](C)NP(=O)(OC[C@H]1O[C@@H](n2ccc(=O)[nH]c2=O)[C@](C)(F)[C@@H]1O)Oc1ccc(Cl)cc1` (stereo partly drawn) [compound 39], the 90% effect level (EC90) was put at 470 nM and the log reduction at 50 µM is 1.78.

For the molecule `C[C@H](NP(=O)(OC[C@H]1O[C@@H](n2ccc(=O)[nH]c2=O)[C@](C)(F)[C@@H]1O)Oc1ccccc1)C(=O)OC1CCCCC1` (stereo partly drawn) [compound 49], it took 126 nM to reach the 90% level (EC90) and the log reduction at 50 µM came to 2.69.

As for `CCCCOC(=O)[C@H](C)NP(=O)(OC[C@H]1O[C@@H](n2ccc(=O)[nH]c2=O)[C@](C)(F)[C@@H]1O)Oc1ccccc1Cl` (stereo partly drawn) [compound 53], the EC90 was less than 300 nM and the log reduction at 50 µM worked out at 1.33.

Take `CC(C)OC(=O)[C@H](C)NP(=O)(OC[C@H]1O[C@@H](n2ccc(=O)[nH]c2=O)[C@](C)(F)[C@@H]1O)Oc1ccc(Br)cc1` (stereo partly drawn) [compound 54]: the EC90 amounted to 570 nM and the log reduction at 50 µM came to 1.55.

For the molecule `C[C@H](NP(=O)(OC[C@H]1O[C@@H](n2ccc(=O)[nH]c2=O)[C@](C)(F)[C@@H]1O)Oc1ccc(F)cc1)C(=O)OC1CCCCC1` (stereo partly drawn) [compound 55], the EC90 was less than 300 nM and the log reduction at 50 µM was 2.38.

Consider `COC(=O)[C@H](C)NP(=O)(OC[C@H]1O[C@@H](N2C=NC3C(NC4CCCC4)=NC(N)=NC32)[C@](C)(F)[C@@H]1O)Oc1ccccc1` (stereo partly drawn) [compound 69], for which the EC90 is less than 300 nM and the log reduction at 50 µM was 2.25.

For `COC(=O)[C@H](C)NP(=O)(OC[C@H]1O[C@@H](N2C=NC3C(N4CCC4)=NC(N)=NC32)[C@](C)(F)[C@@H]1O)Oc1ccccc1` (stereo partly drawn) [compound 70], the EC90 was less than 300 nM and the log reduction at 50 µM stood at 2.25.

The values are drawn from patent US10183037B2, “Nucleoside phosphoramidate prodrugs” (Gilead Pharmasset LLC, priority 2007, dated 2019).
